# Test results published in patent US4980349A, “Sulphonamides derived from diarylmethanes, the processes for preparing them and pharmaceutical compositions containing them” (SANOFI, priority 1986, dated 1990).
# Like-named read-outs stand apart in the source and are kept apart here.
# Columns and labels:
# [1] = tested on: rat hind foot carragheenin-induced oedema; assay: Carragheenin-induced oedema test; format: in vivo; conditions: 3 h, first experiment, Table X, read-out: percentage inhibition of the inflammation; for change in vivo at 25 mg/kg: 25 mg/kg oral; for change in vivo at 50 mg/kg: 50 mg/kg oral; for change in vivo at 100 mg/kg: 100 mg/kg oral
# Experimental: In this test, 10 rats are used per test compound of the invention. Control batches of 10 rats also receive either the comparative compound (ketoprofen) or exclusively an NaCl solution.
# The compounds of the invention are administered orally (stomach tube) one hour before the injection of carragheenin.
# The carragheenin is suspended at a concentration of 1% in a 0.9% isotonic sodium chloride solution. The volume injected into the rat's foot is 0.20 ml.
# The volume of the foot is measured before the injection and 3 hours later. The antagonistic effect of the products towards carragheenin is reflected in the inhibition of the volume of the oedema compared with control rats. The latter receive only isotonic NaCl solution under identical conditions.
# [2] = tested on: rat hind foot kaolin-induced oedema; assay: Kaolin-induced arthritis test, first experiment (decrease in inflammation, foot volume); format: in vivo; conditions: 1 h before kaolin, Table IX, read-out: percentage decrease in the inflammation; for change in vivo at 25 mg/kg: 25 mg/kg oral; for change in vivo at 50 mg/kg: 50 mg/kg oral; for change in vivo at 100 mg/kg: 100 mg/kg oral
# Experimental: The […] of 0.05 ml of a sterile 10% strength suspension of kaolin into the metatarsal flexor sheath of the hind foot of a rat initially induces an oedematous reaction. An inflammatory arthritis then forms.
# The early oedematous reaction appears from the first hour, and reaches its maximum between the fourth hour and the sixth hour. This is the manifestation of interest. The assessment of the volume of the foot enables the action of substances on the oedematous reaction to be studied. The measurements are carried out using a Giono and Chevilard plethysmometer.
# The test products are administered orally (stomach tube) one hour before the injection of the kaolin.
# The results are expressed as a percentage decrease in the inflammation in the treated animals compared with a control series of animals.
# The batches are of 10 animals per dose and 10 control animals.
# The figures shown represent the mean of 10 animals.
# [3] = tested on: pain threshold of brewer's yeast inflamed rat hind foot; assay: Randall and Sellitto's test (analgesic activity); format: in vivo; conditions: first experiment, Table XII, read-out: percentage increase in the mean pain threshold; for change in vivo at 25 mg/kg: 25 mg/kg oral; for change in vivo at 50 mg/kg: 50 mg/kg oral; for change in vivo at 100 mg/kg: 100 mg/kg oral
# Experimental: Inflammation increases the sensitivity to pain, in particular to pressure, and analgesics raise the threshold of the sensitivity.
# The inflammation is obtained by injecting 0.1 ml of a 20% strength aqueous suspension of brewer's yeast under the plantar aponeurosis of one of the hind feet. […] The pain threshold is assessed in terms of the force necessary and sufficient to initiate a characteristic reaction of withdrawing the foot.
# The sensitivity to pain of the inflamed foot reaches a plateau 4 hours after the injection of the brewer's yeast, and then remains stable until the 6th hour. The pain threshold of the inflamed foot in control rats weighing 140 g is reached for pressures of 50 to 60 g, whereas it is around 160 g for the intact foot.
# The action of the substance administered orally to series of 10 rats is expressed in terms of the percentage increase in the mean pain threshold, compared with that measured in the rats of a control series of 10 animals which have not received a compound of the invention.
# The test products are administered orally (stomach tube) one hour before the injection of brewer's yeast.
# The comparative compound used is ketoprofen.
# [4] = tested on: biosynthesis of leukotrienes B4 (LTB4), human polymorphonuclear leukocytes; assay: Biosynthesis of LTB4, isomers and oxidized metabolites in human polymorphonuclear leukocytes; format: cell-based; conditions: Leukocyte
# Experimental: Polymorphonuclear leukocytes are isolated from human blood and used during the 6 hours following the withdrawal. The viability of the cells is checked by trypan blue exclusion.
# 5×10^6 cells are incubated for 10 minutes at 37° C. in the presence of the test product dissolved in DMSO, and are stimulated with ionophore A 23187 (Galbiochem, 10 μM) in PBS buffer at pH 7.4, Ca^2+ and Mg^2+ =1 μM.
# 100 ng of prostaglandin B2 (PGB2), dissolved in methanol, are added at the end of the reaction to act as an internal standard.
# On centrifugation, the culture supernatant is withdrawn. The latter is retrieved under argon and stored at -80° C. until analysed by HPLC.
# This analysis is carried out by injecting 250 μl onto a 5 μm ODS ultrasphere column (Beckmann), with a gradient of acetonitrile (20-80%) in water, at pH 7.4.
# The amounts of the different products which absorb at 269 nm, i.e. leukotrienes B4 (LTB4), isomers of LTB4 and oxidized metabolites of LTB4, are estimated by comparison with the internal standard.
# The test product is used at a concentration of 40 μM.
# They are expressed either as a percentage inhibition, or as a percentage increase in the production of LTB4, isomers of LTB4 and oxidized metabolites of LTB4 (designated by +).
# The experimental model is the same as that described in Section 2.1. Other products are tested by comparison with the compound of the invention no. 1574, used as a control.
# [5] = first experiment, read-out: Isomers of LTB4: percentage inhibition (+ : percentage increase in the production)
# [6] = first experiment, read-out: LTB4: percentage inhibition (+ : percentage increase in the production)
# [7] = first experiment, read-out: Oxidized metabolites of LTB4: percentage inhibition (+ : percentage increase in the production)
# [8] = second experiment, read-out: Percentage inhibition of LTB4 formation
SMILES,change in vivo at 25 mg/kg [1] [%],change in vivo at 50 mg/kg [1] [%],change in vivo at 100 mg/kg [1] [%],change in vivo at 25 mg/kg [2] [%],change in vivo at 50 mg/kg [2] [%],change in vivo at 100 mg/kg [2] [%],change in vivo at 25 mg/kg [3] [%],change in vivo at 50 mg/kg [3] [%],change in vivo at 100 mg/kg [3] [%],"inhibition at 40 µM [4, 5] [%]","inhibition at 40 µM [4, 6] [%]","inhibition at 40 µM [4, 7] [%]","inhibition at 40 µM [4, 8] [%]"
O=C(O)CCCCCNS(=O)(=O)c1ccc(Cl)cc1C(=O)c1ccccc1 [Compound 1569],-30,-35,-50,-28,-30,-45,10,15,25,–,–,–,–
O=C(O)CCCCCCCCCCCNS(=O)(=O)c1ccccc1C(=O)c1ccccc1 [Compound 1683],-25,-30,-35,-25,-30,-40,15,20,30,15,15,30,–
O=C(O)CNS(=O)(=O)c1ccc(Cl)cc1C(=O)c1ccccc1 [Compound 1565],-18,-22,-49,-15,-20,-45,18,28,42,–,–,–,–
O=C(c1ccccc1)c1ccccc1S(=O)(=O)NCCCN1CCOCC1 [Compound 1340],-5,-5,-10,-10,-25,-45,10,20,49,–,–,–,–
O=C(O)CCCCCCCCCCNS(=O)(=O)c1ccc([N+](=O)[O-])cc1C(=O)c1ccccc1 [Compound 1571],-23,-27,-48,-17,-26,-50,25,32,36,53,60,70,–
O=C(c1ccccc1)c1cc(Cl)ccc1S(=O)(=O)NCCN1CCOCC1 [Compound 1343],-7,-8,-8,–,–,–,10,12,12,–,–,–,–
O=C(O)CCCCCCCCCCNS(=O)(=O)c1cccc(C(=O)c2ccccc2)c1 [Compound 1684],-30,-45,-55,-28,-42,-45,35,45,50,35,20,60,–
O=C(O)CCCCCCCCCCCNS(=O)(=O)c1ccc(C(=O)c2ccccc2)cc1 [Compound 1687],-25,-30,-48,-23,-28,-50,25,35,50,0,16,-30,–
O=C(O)CCCCCCCCCCCNS(=O)(=O)c1cccc(C(=O)c2cc(S(=O)(=O)NCCCCCCCCCCCC(=O)O)ccc2Cl)c1 [Compound 1689],–,–,–,–,–,–,–,–,–,-30,-30,20,–
O=C(O)CNS(=O)(=O)c1ccc(Cl)cc1C(=O)c1ccccc1Cl [Compound 1575],-15,-18,-35,-18,-21,-37,15,19,35,–,–,–,–
O=C(O)CCCCCCCNS(=O)(=O)c1ccc(Cl)cc1C(=O)c1ccccc1Cl [Compound 1743],–,–,–,–,–,–,–,–,–,–,–,–,20
O=C(O)CCCCCCCCCCCNS(=O)(=O)c1cccc(C(=O)c2ccccc2)c1 [Compound 1685],–,–,–,–,–,–,–,–,–,70,50,70,–
O=C(O)CCCCCCCCCCNS(=O)(=O)c1ccc(C(=O)c2ccccc2)cc1 [Compound 1686],-50,-50,-55,-50,-50,-50,35,50,50,5,0,25,–
O=C(O)CCCCCNS(=O)(=O)c1ccc([N+](=O)[O-])cc1C(=O)c1ccccc1 [Compound 1568],-15,-20,-35,-15,-18,-40,18,25,48,–,–,–,–
"O=C(O)CCCCCCCCCCNS(=O)(=O)c1ccc(Cl)c(C(=O)c2ccccc2)c1 [Compound 1737, 11-(3-benzoyl-4-chlorobenzenesulphonamido)undecanoic acid]",–,–,–,–,–,–,–,–,–,–,–,–,95
O=C(O)CCCNS(=O)(=O)c1ccc(Cl)cc1C(=O)c1ccccc1 [Compound 1567],-8,-10,-10,-12,-15,-20,12,15,20,–,–,–,–
"O=C(O)CCCNS(=O)(=O)c1ccc(C(=O)c2cccs2)cc1 [Compound 1738, 4-[4-(2-thenoyl)benzenesulphonamido]butyric acid]",–,–,–,–,–,–,–,–,–,–,–,–,20
"O=C(c1ccccc1)c1cc(Cl)ccc1S(=O)(=O)NCCCN1CCOCC1 [Compound 1344, 2-benzoyl-4-chloro-N-(3-morpholinopropyl)benzenesulphonamide]",–,–,–,-10,-15,-18,18,18,25,–,–,–,–
